# Experimental data published in patent US20260209260A1, “VECTORIZED NHC IRIDIUM(III) COMPLEXES AND USE THEREOF IN PHOTODYNAMIC THERAPY AND/OR DIAGNOSTIC” (CENTRE NATIONAL DE LA RECHERCHE SCIENTIFIQUE, priority 2022, published 2026).
# Several values for one entry are separate records, joined by “and”; a condition that tells them apart may be missing. Identical values can stand only once. Like-named read-outs stand apart in the source and are kept apart here.
# What was measured:
# [1] = Emission lifetime measurement; format: physicochemical
# How it was run: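 Emission lifetimes measured by time-correlated single-photon counting (0.5 ns time resolution), excitation from a D2 lamp and a 405 nm pulsed diode laser. Estimated error 5% on lifetime.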
# [2] = test system: C4-2B prostate cancer cells (PSMA-positive); assay: Cell viability assay (MTT), dark and blue light; format: cell-based, Human; conditions: dark vs blue light 458 nm
# How it was run: (§1)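 Cells seeded 5,000–10,000/well, treated in 0.1% (v/v) DMSO either 72 h in dark or 8 h dark, 10 min 458 nm blue LED irradiation (9.6 W), then dark to 72 h. Viability by MTT, absorbance 570 nm; at least three independent experiments in triplicate.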
# [3] = test system: PC-3 prostate cancer cells (PSMA-negative); assay: Cell viability assay (MTT), dark and blue light; format: cell-based, Human; conditions: for SI (vs NIH-3T3) PC-3 Blue: blue light 458 nm; for Photosensitizing index (PI) PC-3: dark vs blue light 458 nm
# How it was run: as §1
# [4] = Luminescence emission spectra and quantum yield; format: physicochemical; conditions: for ΦP emission phosphorescence quantum yield: room temperature, reference POPOP in hexane or rhodamine B in ethanol
# How it was run: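 Spectrofluorometric fluorescence/phosphorescence emission spectra of the iridium(III) complexes recorded in CH2Cl2 at room temperature. Quantum yields by the Demas–Crosby relative method on solutions at RT, from integrated emission band areas versus a reference standard of known yield, corrected for solvent refractive index.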
# [5] = Lipophilicity: octanol-water partition coefficient, shake-flask method
# How it was run: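 Octanol and water mutually pre-saturated for 24 h; compound ([…] stock in aqueous phase) partitioned against equal volume n-octanol, mixed 15 min, phases separated by centrifugation.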
# [6] = UV/Vis absorption spectra; format: physicochemical; conditions: room temperature; for maximum absorption, lowest-lying bands in the visible region over 360 nm: CH2Cl2 or CH2Cl2/MeOH (1:1); for λmax (nm) ε (M^−1 · cm^−1): air-saturated CH2Cl2 or CH2Cl2/MeOH (1:1), 50 μM, ε in brackets, sh = shoulder
# Protocol: UV/Vis absorption spectra were recorded at RT on solutions contained in quartz cuvettes (optical pathlength 1 cm, Hellma®) with a PerkinElmer® UV/VIS/NIR spectrophotometer Lambda 950 and a PerkinElmer® detector UV/VIS/NIR Accessory 2D Detector Module.
# [7] = test system: NIH-3T3 fibroblast cells (non-tumor); assay: Cell viability assay (MTT), dark and blue light; format: cell-based, Murine; conditions: for Photosensitizing index (PI) NIH-3T3: dark vs blue light 458 nm
# How it was run: (§2)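 Tumor lines and non-tumor murine MC3T3 osteoblasts and NIH-3T3 fibroblasts were seeded overnight and treated with complexes at 0.1% (v/v) DMSO for 72 h. Light samples were irradiated 10 min after 8 h of dark incubation. Viability was measured by MTT absorbance at 570 nm.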
# [8] = test system: cancer cells (all tumor cell lines tested); assay: Cell viability assay (MTT), summary over the cancer cell lines tested; format: cell-based, Human
# Protocol: (§3) Cells were grown in humidified incubators at 37° C. in 5% CO2. Murine MC3T3 osteoblast and NIH-3T3 fibroblast cells-used as non-tumor cell models-were cultured in a-MEM medium and DMEM medium supplemented with 10% fetal bovine serum (FBS) and 1% Penicillin/Streptomycin (P/S) antibiotics, respectively. Human T24 bladder, MGHU3 bladder, Scaber bladder, A549 lung, MCF7 breast, MiaPaCa2 pancreas cancer cells were cultured in DMEM medium supplemented with 10% FBS and 1% P/S antibiotics. […] Human Hela cervix and HepG2 liver cancer cells were cultured EMEM medium supplemented with 10% FBS and 1% P/S antibiotics.
# (§4) MTT reagent (3-(4,5-dimethylthiazol-2-yl)-2,5-diphenyltetrazolium bromide) was used to determine cell death as originally described by Mosmann. Briefly, cells were seeded from 5,000 to 10,000 cells/well in 24-well plates (1 mL) depending on the cell type and allowed to attach overnight. The complexes were prepared in DMSO. The concentration of the complexes was calculated based on the elemental composition of the complexes determined by the elemental analyses. All cell viability experiments were carried out with a fixed concentration of 0.1% (v/v) DMSO. After 72 h of treatment, cells were incubated at 37° C. and 5% CO2 with 25 μL of MTT solution (5 mg/ml; Sigma-Aldrich) in 24-well plates for 3 to 4 h. After solubilization with 500 μL of DMSO, formazan was quantified spectrophotometrically with a microplate reader at 570 nm absorbance (ClarioSTAR, BMG LabTech). […] All the results were calculated from data obtained in at least three independent experiments performed in triplicate.
# (§5) Two sets of experiments were conducted in parallel for each complex to be studied:
# (§6) 1. The cells were incubated with the different complexes (in the dark) for 72 h.
# (§7) 2. The cells were incubated for 8 h with the different complexes (in the dark), then irradiated for 10 min, followed by an incubation in the dark up to 72 h.
# [9] = test system: MiaPaCa2 pancreas cancer cells; assay: Cell viability assay (MTT), dark and blue light; format: cell-based, Human
# Protocol: as §3, §4, §5, §6, §7
# [10] = test system: T24 bladder cancer cells; assay: Cell viability assay (MTT), dark and blue light; format: cell-based, Human
# Protocol: as §3, §4, §5, §6, §7
# [11] = test system: A549 lung cancer cells; assay: Cell viability assay (MTT), dark and blue light; format: cell-based, Human
# Protocol: as §3, §4, §5, §6, §7
# [12] = test system: ASPC-1 pancreas cancer cells; assay: Cell viability assay (MTT), dark and blue light; format: cell-based, Human
# Protocol: as §3, §4, §5, §6, §7
# [13] = test system: MC3T3 osteoblast cells (non-tumor); assay: Cell viability assay (MTT), dark and blue light; format: cell-based, Murine
# How it was run: as §2
# [14] = 8 h in the dark, blue light 458 nm 10 min, then dark up to 72 h, read-out: GI50 PC-3 Blue
# [15] = PC3, blue light, read-out: GI50
# [16] = in the dark, 72 h, read-out: GI50 PC-3 Dark
# [17] = n-octanol/water, shake-flask, mean of at least three determinations
# [18] = 8 h in the dark, blue light 458 nm 10 min, then dark up to 72 h, read-out: GI50 NIH-3T3 Blue
# [19] = NIH-3T3, blue light, read-out: GI50
# [20] = in the dark, 72 h, read-out: GI50 NIH-3T3 Dark
smiles,measurement,setting,value
Cc1ccc2[c](c1)[Ir-3]13([c]4cc(C)ccc4-c4cccc[n+]41)([c]1n(CCC(=O)NCCCC[C@H](NC(=O)N[C@@H](CCC(=O)O)C(=O)O)C(=O)O)cc[n+]1-c1cccc[n+]13)[n+]1ccccc1-2.F[P-](F)(F)(F)(F)F [III-b],τ1 emission lifetime,[1],194 ns
same,Photosensitizing index (PI) C4-2b,[2],did not show any photosensitizing effect
same,GI50,[3]; [14],> 100 µM
same,GI50,[3]; [15],> 100 µM
same,GI50,"[3]; PC3, dark, read-out: GI50",> 100 µM
same,SI (vs NIH-3T3) PC-3 Blue,[3],1.0
same,Photosensitizing index (PI) PC-3,[3],did not show any photosensitizing effect
same,GI50,[3]; [16],> 100 µM
same,ΦP emission phosphorescence quantum yield,[4],1.8%
same,Log P,[5]; [17],−0.14 ± 0.04
same,"maximum absorption, lowest-lying bands in the visible region over 360 nm",[6],around 380 nm
same,λmax (nm) ε (M^−1 · cm^−1),[6],"310 (sh) (23310), 379 (7615) nm (M^−1 · cm^−1)"
same,GI50,[7]; [18],> 100 µM
same,GI50,[7]; [19],> 100 µM
same,GI50,"[7]; NIH-3T3, dark, read-out: GI50",> 100 µM
same,Photosensitizing index (PI) NIH-3T3,[7],did not show any photosensitizing effect
same,GI50,[7]; [20],> 100 µM
CC(C)=CCC/C(C)=C/CC/C(C)=C/CSc1ccccc1C(=O)NCCCn1cc[n+]2[c]1[Ir-3]13([c]4ccccc4-c4ccc5ccccc5[n+]41)([c]1ccccc1-c1ccc4ccccc4[n+]13)[n+]1ccccc1-2.F[P-](F)(F)(F)(F)F [II-g],"selectivity for cancer cells over non-tumor cells, in words",[8],highest selectivity toward cancer cells compared to non-tumor cells
same,"SI values, mean over cancer cells, dark",[8]; dark,10.2 fold
same,"SI values, median over cancer cells, dark",[8]; dark,10.3 fold
same,GI50,"[9]; 8 h in the dark, blue light 458 nm 10 min, then dark up to 72 h, read-out: GI50 MiaPaCa2 Blue",0.25 µM
same,SI (vs MC3T3) MiaPaCa2 Blue,[9]; blue light 458 nm,24.0
same,SI (vs NIH-3T3) MiaPaCa2 Blue,[9]; blue light 458 nm,20.7
same,SI (vs MC3T3) MiaPaCa2 Dark,[9]; dark,14.4
same,SI (vs NIH-3T3) MiaPaCa2 Dark,[9]; dark,10.7
same,Photosensitizing index (PI) MiaPaCa2,[9]; dark vs blue light 458 nm,1.6
same,GI50,"[9]; in the dark, 72 h, read-out: GI50 MiaPaCa2 Dark",0.4 µM
same,GI50,"[10]; 8 h in the dark, blue light 458 nm 10 min, then dark up to 72 h, read-out: GI50 T24 Blue",0.64 µM and 0.65 µM
same,SI (vs MC3T3) T24 Blue,[10]; blue light 458 nm,9.2
same,SI (vs NIH-3T3) T24 Blue,[10]; blue light 458 nm,8.0
same,SI (vs MC3T3) T24 Dark,[10]; dark,12.3
same,SI (vs NIH-3T3) T24 Dark,[10]; dark,9.1
same,Photosensitizing index (PI) T24,[10]; dark vs blue light 458 nm,0.7
same,GI50,"[10]; in the dark, 72 h, read-out: GI50 T24 Dark",0.47 µM
same,GI50,"[11]; 8 h in the dark, blue light 458 nm 10 min, then dark up to 72 h, read-out: GI50 A549 Blue",0.39 µM
same,SI (vs MC3T3) A549 Blue,[11]; blue light 458 nm,15.2
same,SI (vs NIH-3T3) A549 Blue,[11]; blue light 458 nm,13.2
same,SI (vs MC3T3) A549 Dark,[11]; dark,12.9
same,SI (vs NIH-3T3) A549 Dark,[11]; dark,9.6
same,Photosensitizing index (PI) A549,[11]; dark vs blue light 458 nm,1.2
same,GI50,"[11]; in the dark, 72 h, read-out: GI50 A549 Dark",0.45 µM
same,GI50,"[12]; 8 h in the dark, blue light 458 nm 10 min, then dark up to 72 h, read-out: GI50 ASPC-1 Blue",0.47 µM
same,SI (vs MC3T3) ASPC-1 Blue,[12]; blue light 458 nm,12.6
same,SI (vs NIH-3T3) ASPC-1 Blue,[12]; blue light 458 nm,10.9
same,SI (vs MC3T3) ASPC-1 Dark,[12]; dark,7.8
same,SI (vs NIH-3T3) ASPC-1 Dark,[12]; dark,5.8
same,Photosensitizing index (PI) ASPC-1,[12]; dark vs blue light 458 nm,1.6
same,GI50,"[12]; in the dark, 72 h, read-out: GI50 ASPC-1 Dark",0.74 µM
same,Log P,[5],1.95 ± 0.05
same,λmax (nm) ε (M^−1 · cm^−1),[6],"333 (20560), 438 (4735) nm (M^−1 · cm^−1)"
same,GI50,"[13]; 8 h in the dark, blue light 458 nm 10 min, then dark up to 72 h, read-out: GI50 MC3T3 Blue",5.9 µM
same,Photosensitizing index (PI) MC3T3,[13]; dark vs blue light 458 nm,1.0
same,GI50,"[13]; in the dark, 72 h, read-out: GI50 MC3T3 Dark",5.8 µM
same,GI50,[7]; [18],5.1 µM
same,Photosensitizing index (PI) NIH-3T3,[7],0.8
same,GI50,[7]; [20],4.3 µM
COC(=O)c1cccc2[c]1[Ir-3]13([c]4c(C(=O)OC)cccc4-c4cccc[n+]41)([c]1n(CCC(=O)NCCCC[C@H](NC(=O)N[C@@H](CCC(=O)O)C(=O)O)C(=O)O)cc[n+]1-c1cccc[n+]13)[n+]1ccccc1-2.F[P-](F)(F)(F)(F)F [III-d],τ1 emission lifetime,[1],219 ns
same,Photosensitizing index (PI) C4-2b,[2],did not show any photosensitizing effect
same,GI50,[3]; [14],> 100 µM
same,GI50,[3]; [15],> 100 µM
same,GI50,"[3]; PC3, dark, read-out: GI50",> 100 µM
same,SI (vs NIH-3T3) PC-3 Blue,[3],1.0
same,Photosensitizing index (PI) PC-3,[3],did not show any photosensitizing effect
same,GI50,[3]; [16],> 100 µM
same,λem,"[4]; CH2Cl2, room temperature, λexc 365 nm or 470 nm",498 nm
same,ΦP emission phosphorescence quantum yield,[4],2.1%
same,Log P,[5]; [17],−0.52 ± 0.01
same,"maximum absorption, lowest-lying bands in the visible region over 360 nm",[6],around 370 nm
same,λmax (nm) ε (M^−1 · cm^−1),[6],"370 (13650), 452 (sh) (565) nm (M^−1 · cm^−1)"
same,GI50,[7]; [18],> 100 µM
same,GI50,[7]; [19],> 100 µM
same,GI50,"[7]; NIH-3T3, dark, read-out: GI50",> 100 µM
same,Photosensitizing index (PI) NIH-3T3,[7],did not show any photosensitizing effect
same,GI50,[7]; [20],> 100 µM
